{"source": "paper PMC5642494", "about": "(Oncotarget, 2017)", "tested_on": "MCF7 cells", "test": "TCA metabolite profiling by LC/MS in MCF7", "assay_type": "cell-based, human", "details": "for EC50: Homo sapiens, MCF7, MCF7, single experiment, read-out: EC50 α-ketoglutarate; for Aspartate level / Citrate level / Fumarate level / Glutamate level / Isocitrate level / Lactate level / Malate level / Pyruvate level / Succinate level / α-ketoglutarate level: MCF7, 3 DT, normalized to DMSO = 1, n = 3", "protocol": "MCF7 cells were plated at 20,000 cells/well in 24-well plate; approximately 14–24 hours after seeding, cells were treated with DMSO (vehicle) or the indicated compounds diluted in DMSO. Cells were incubated for three different incubation times: 48 hours (1 DT), 96 hours (2 DT), and […] (3 DT). After treatment, cells were harvested and the collected pellet was stored at -80°C. For additional details see Supplemental Methods and Supplementary Table 1. […]\nSA-β-gal Cell samples were lysed after treatment with expression was determined using the Senescence Cells 100 µL lysis buffer and transferred to a 96-well plate.\nHistochemical Staining Kit (Sigma, CS0030) following 30 µL of each sample were transferred into deep well the vendor ’s manual. Images were taken at 100x by bright plates using TECAN-EVO Workstation. Samples were field microscopy (Leica DMiL). treated for derivatization of the metabolites of interest and internal standards. For this, 50 µL of derivatization reagent\nProliferation studies after washouts (EdU Click- and 80 µL of internal standard (IS, SupplementaryTable iT®) 1), were added with multidrop, plates were vortexed for 5 mins and let sit for one hour at 4 °C. The IS used were the Cells were plated onto poly-D-lysine D or 13C-labeled commercial analogues of nine of the ten coated 96-well plates at a density of 2,000–6,000 metabolites, prepared at 25 µM in water (Supplementary viable cells per well, and treated with abemaciblib or Table 1). The derivatization reagents (from Sigma), palbociclib at 1µM following the cell treatment and 3-nitrophenylhydrazine (0.5 M) and the coupling buffer washout schedule shown on Supplementary Figure 1A. [N-(3-Dimethylaminopropyl)-N′-ethylcarbodiimide An EdU (5-ethynyl-2’-deoxyuridine) pulse was added hydrochloride (1M) were freshly prepared in 75:24:1 one hour prior to the end of study at a final concentration methanol/water/pyridine. of 10 µM as described in the kit protocol (Click-iT After derivatization, a liquid-liquid extraction step High Content Imaging EdU Incorporation kit (Life with ethyl acetate was carried out in two steps; the upper Technologies cat# C10351)). The cells were then fixed phase was transferred to a new deep-well plate with in the presence of 3.7% formaldehyde for 20 minutes at TECAN-EVO, and the joint extract was evaporated to 37°C, and permeabilized with 0.1% Triton-X 100 in PBS dryness with nitrogen, and reconstituted with 50% H2O/ for 10 minutes at 25°C, then washed twice with PBS. MetOH. A set of calibrants at 12 levels of the analytes They were blocked using 1% bovine serum albumin was derivatized in parallel following the same protocol.\n(BSA) (Invitrogen #15260-037) for 1 hour at 25°C. EdU Samples were analyzed by LC─MS/MS under the detection was performed using the Click-iT High Content conditions described below. […]\nMass Spectrometer (qQq) with JetStream Electrospray\nObjects were identified using an algorithm to Ionization (ESI) Source, coupled to a LC1290 Infinity detect nuclear staining with Hoechst 33342 dye. The High-Performance Liquid Chromatograph. The software relative levels and sub-cellular localization of EdU were for data collection and treatment was Agilent Masshunter determined through the respective intensities and locations Workstation. Mobile phases for chromatography were: of Alexa-488 fluorescence. mobile phase A: formic acid (5 mM) and ammonium formate (10 mM) in water; mobile phase B: acetonitrile.\nAssessment of hypermethylation of histone H3 at 50% Acetonitrile/water were used to clean the lysine 9 (H3K9me3) injection needle after each injection. A reverse-phase chromatographic column (XBridge BEH C18 3.5 µm, MCF7 and EFM-19 cells were plated in 96-well 2.1 × 50 mm) from […] plates and treated at 20 µM (or a 3-fold dilution series) was used as stationary phase. Chromatographic separation […]\nTecan Genesis RSP100 liquid-handling system was used mobile phase A in 6 min; then to 5% in 0.1 min, maintained […]", "note": "Read-outs that look alike come from different tables or passages of the source.", "data": [{"molecule": "CCN1CCN(Cc2ccc(Nc3ncc(F)c(-c4cc(F)c5nc(C)n(C(C)C)c5c4)n3)nc2)CC1", "note": "[abemaciclib, Abemaciclib]", "values": [{"measurement": "EC50", "setting": "1 DT", "value": 0.37, "unit": "µM"}, {"measurement": "EC50", "setting": "2 DT", "value": 0.28, "unit": "µM"}, {"measurement": "EC50", "setting": "3DT", "value": 0.73, "unit": "µM"}, {"measurement": "Aspartate level", "setting": "0.5 µM", "value": "0.72 ± 0.10"}, {"measurement": "Citrate level", "setting": "0.5 µM", "value": "1.20 ± 0.27"}, {"measurement": "Fumarate level", "setting": "0.5 µM", "value": "0.12 ± 0.02"}, {"measurement": "Glutamate level", "setting": "0.5 µM", "value": "0.71 ± 0.06"}, {"measurement": "Isocitrate level", "setting": "0.5 µM", "value": "1.90 ± 0.65"}, {"measurement": "Lactate level", "setting": "0.5 µM", "value": "0.30 ± 0.02"}, {"measurement": "Malate level", "setting": "0.5 µM", "value": "0.22 ± 0.01"}, {"measurement": "Pyruvate level", "setting": "0.5 µM", "value": "1.22 ± 0.64"}, {"measurement": "Succinate level", "setting": "0.5 µM", "value": "0.35 ± 0.08"}, {"measurement": "α-ketoglutarate level", "setting": "0.5 µM", "value": "0.13 ± 0.03"}, {"measurement": "Aspartate level", "setting": "2 µM", "value": "0.47 ± 0.13"}, {"measurement": "Citrate level", "setting": "2 µM", "value": "1.07 ± 0.3"}, {"measurement": "Fumarate level", "setting": "2 µM", "value": "0.12 ± 0.07"}, {"measurement": "Glutamate level", "setting": "2 µM", "value": "1.10 ± 0.38"}, {"measurement": "Isocitrate level", "setting": "2 µM", "value": "0.81 ± 0.52"}, {"measurement": "Lactate level", "setting": "2 µM", "value": "0.38 ± 0.15"}, {"measurement": "Malate level", "setting": "2 µM", "value": "0.09 ± 0.03"}, {"measurement": "Pyruvate level", "setting": "2 µM", "value": "3.59 ± 1.65"}, {"measurement": "Succinate level", "setting": "2 µM", "value": "0.65 ± 0.23"}, {"measurement": "α-ketoglutarate level", "setting": "2 µM", "value": "0.08 ± 0.02"}]}]}
